{
  "source": "patent US20090069740A1",
  "about": "“PROTECTED DONOR ELECTRODES FOR ELECTRO-TRANSPORT DRUG DELIVERY” (POLYPLUS BATTERY COMPANY, priority 2007, published 2009)",
  "test": "In vitro Li delivery through pig skin in a flow-through Li-AgCl cell (protected Li metal foil donor electrode)",
  "assay_type": "in vitro ADME",
  "conditions": "ICP-MS",
  "protocol": "The glass receptor compartment was similar to one described by Phipps et al. (1988) Solid-state Ionics 28-30: 1778-1783, for ionophoretic drug delivery experiments. The receptor compartment was filled with RPMI-1640 Medium (Sigma Aldrich). The antibiotic gentamicin sulphate was added to the receptor compartment fluid to inhibit bacterial growth.\nThe prepared skin was stored in RPMI-1640 medium overnight before the start of the experiment. The skin was placed on the receptor chamber and kept in place and stretched out with an O-ring around the neck of the chamber. The visceral surface of the skin was in contact with the receptor fluid.\nA square 1 cm×1 cm silver chloride cathode with a capacity of approximately 40 mAh was introduced into the receptor chamber through a port. A multi-channel peristaltic pump was used to create a flow of the RPMI-1640 medium through receptor compartments of several cells. […]\nThe donor-acceptor chamber assembly was kept in place using a clamp. […] Li content in the fluid samples taken from receptor compartment was analyzed by ICP-MS.\nOver the duration of the experiment (27 hrs at a current density of 0.1 mA/cm^2 and 24 hrs at a current density of 0.2 mA/cm^2), receptor fluid samples were taken and analyzed.\nThe rate of Li delivery into the receptor compartment was calculated as a product of Li concentration and the flow rate of the receptor fluid.",
  "data": [
    {"smiles": "[Li+]", "note": "[Li, lithium]", "values": [
      {"measurement": "initial Li content of receptor solution", "setting": "before current passing", "value": "≤ 6", "unit": "µg/L"},
      {"measurement": "Li content in receptor fluid samples", "setting": "constant current 0.1 mA/cm^2 (27 hrs) and 0.2 mA/cm^2 (24 hrs), 37° C, RPMI-1640 receptor fluid, flow rate 2.1 mL/hr, FIG. 9", "value": "gradually increased over time and was significantly larger for the rate of 0.2 mA/cm^2 than for 0.1 mA/cm^2"}
    ]}
  ]
}
